Source: paper PMC12020424, “Identification and Validation of Cyclic Peptides with Mucin-Selective, Location-Specific Binding in the Gastrointestinal Tract” (ACS Nano, 2025)
Bridge positions count the residues as written; N and C are the ends. Ends that are not written are not given here.

How the values were obtained:
MUC5AC [1] = molecular target: T1, MUC5AC (Homo sapiens, UniProt P98088); assay: Phage ELISA on MUC5AC; assay type: binding; conditions: phage clones displaying the peptide, 10^7 PFU/μL, MUC5AC-coated plate, anti-M13/HRP, TMB, 450 nm, blank subtracted, three wells; vs random library and insertless phage
From the text: We next sought to validate the binding efficiency of these identified phage clones. We tested phage clones displaying peptides M2.1, M2.2, M2.3, and M2.4 for binding to MUC2, and phage clones displaying peptides M5.1, M5.2, M5.3, and M5.4 for binding to MUC5AC. We utilized a bacteriophage enzyme-linked immunosorbent assay to test the binding of the peptide hits to the specific target mucins, MUC2 and MUC5AC (Figure 2d). The spectrophotometer reported absorbance values at 450 nm. The intensity of the absorbance signal is proportional to the amount of peptide-mucin binding present in each sample. The negative controls (library samples and insertless samples) served as references for nonspecific binding.
First, mucin was coated onto the surface of a plastic plate overnight using the same process as that performed for the original phage display. The next morning, three wells of each phage clone were prepared, with each phage solution having a titer of 10^7 PFU/μL to ensure a fair comparison between the clones. […]
However, instead of eluting the bound phage, 100 μL of 1:2000 anti-M13/HRP mouse monoclonal antibody was added to each well, and the antibody was allowed to incubate with the wells for 30 min. […] The resulting solutions were analyzed by absorbance spectroscopy at a wavelength of 450 nm to determine the relative amount of phage present in each well.

MUC5AC [2] = molecular target: T1, MUC5AC; assay: Phage display (CX7C library) against MUC5AC, Sanger sequencing; assay type: binding; conditions: MUC5AC phage screening, third round of panning, 16 sequenced candidates
Description: For each mucin of interest, 5 μg of mucin protein was diluted in 150 μL of Tris-buffered saline (TBS) and added to 2 wells of a microtiter plate. The plate was left overnight in a humidified, sealed container with agitation at 50 rpm. After the overnight mucin coating, the solution was poured out, and 300 μL of blocking buffer was added to the wells for 1 h. After the 1 h waiting period, the blocking buffer was poured out, and the wells were washed three times with 300 μL of Tris-buffered saline with TBST (TBS + 0.1% (v/v) Tween-20) to remove nonspecific binding on the mucin layer coating. Next, 5 μL of the C7C library diluted with 95 μL of TBST was added to each blocked well and placed on shaker for 45 min, before pouring out the nonbinding phage and washing the plate ten times with TBST. A 0.2 M glycine-HCl elution buffer (pH 2.2, 100 μL) was added to each well and placed on a shaker for 20 min to release the mucin-layer binding peptides on the plate as unamplified eluate, with the pH neutralized by 30 μL of neutralization buffer (1 M Tris-HCl, pH 9).
E. coli liquid cultures were prepared by adding E. coli cells to 20 mL of LB media and placing them in shaking conditions at 37 °C and 250 rpm for 2 h and 45 min. The unamplified eluate (1 μL of which was saved for titering) was added to the E. coli cultures under the same conditions for 4 h and 45 min for amplification. […]

small intestine = assay: In vivo gastrointestinal localization, small intestine; design: species or system Sprague–Dawley rats; conditions: AF647 conjugate, oral gavage, 1 mg/kg, fasted rats, n = 6, 6 h, segment fluorescence / sum of esophagus, stomach
Description: To measure the gastrointestinal localization of these peptides in vivo, peptides M2.3 and M5.2 with conjugated AF647 dye (as a model drug) were administered via oral gavage to fasted Sprague–Dawley rats, along with unconjugated AF647 dye and WGA-AF647. After 6 h, localization was measured by using fluorescent imaging on the rats’ GI tracts. The major results of the total binding fluorescence and organ-specific binding fluorescence for M2.3, as well as the total binding fluorescence and organ-specific binding fluorescence for M5.2, along with results for the AF647 and WGA-AF647 in each case, are shown in Figure 4, with more detailed results found in Figure S9. All results have been adjusted by subtracting the fluorescence from tissue from untreated rats. […]
All animal studies were carried out under the supervision of MIT’s Division of Comparative Medicine and in compliance with NIH’s Principles of Laboratory Animal Care, following the guidelines set forth by MIT’s Committee on Animal Care. Sprague–Dawley rats (200–300 g, a mix of male and female) were obtained from Charles River Laboratories and allowed to acclimate to their new conditions for 1 week, following which their diet was adjusted to an alfalfa-free diet (AIN-93M, TestDiet) for at least 7 days prior to the study in order to reduce background fluorescence. […]

[3] = system: MUC2-containing intestinal tissue (jejunal); assay: Ex vivo fluorescent binding to small intestine tissue; design: species or system porcine; conditions: MUC2-selective peptides to small intestine
From the text: (§1) After identifying the peptide hits for each mucin, we tested their binding in an ex vivo setting (Figure S1), evaluating their interaction with mucin-containing porcine tissue and semiquantitatively representing it through fluorescent imaging (Figure 3a). The cyclic peptides were synthesized and conjugated to a fluorophore, Alexa Fluor 647 (AF647), at the N-terminus to allow fluorescent imaging to be used to semiquantitatively measure the peptides’ ex vivo tissue binding, compared to free AF647 and AF647 conjugated to wheat germ agglutinin (WGA), a known lectin for glycoproteins.[40] […] Porcine GI tissue was used due to its similarity in mucin expression compared to human GI tissue and its capacity to source large surface areas of tissue for experiments.[41],[42] Representative IVIS images are shown in Figure 3b-e, where the first four columns represent the four identified peptides (M2.1–M2.4 in Figure 3b,c, M5.1–M5.4 in Figure 3d,e), the fifth column represents WGA-AF647, and the sixth column represents AF647. The “score” results for the peptide ligands are presented in Figure 3f,g for the mucins of interest, with Tables S2–S5 and Figure S3 detailing results for the other tissues (the equation for calculating the “score” is found in the Materials and Methodssection). […] We also examined selectivity by incubating peptides on nontarget tissues. Figure 3h,i depicts the “selectivity” results for the MUC2-selective and MUC5AC-selective peptides, respectively. Selectivity was calculated by determining the ratio of the “score” for a particular mucin to the sum of the “scores” for all mucins (see the Materials and Methods section for the equation used).
(§2) The top-performing hits from phage display were tested on ex vivo segments of porcine mucin-containing tissues (jejunal, stomach, and esophageal tissues) obtained from local abattoirs or laboratory-maintained pigs. Tissue was used either immediately after acquisition or after storage at −80 °C; tissue was used at most 1 week after acquisition and storage at −80 °C. After acquisition and equilibration to room temperature, the tissue was washed twice with 25 mL (each) of cold 1× PBS to remove undigested food and other debris. After washing and cleaning, the tissue was mounted between two magnetic plates with holes corresponding to a 48-well plate, as previously described,[72] such that the luminal side of the tissue was facing up (Figure S1). After the tissue was mounted, the amount of peptide/protein corresponding to 40 μg of AF647 was suspended in 200 μL of 1× PBS and added to the wells created by the magnetic plates. This was done 3× for each formulation to perform the experiment in triplicate. In addition, plain 1× PBS was added to one well to serve as the background measurement. After the peptides were added, the plate setup was covered with aluminum foil and allowed to incubate for 1 h at room temperature with gentle agitation (50 rpm). After incubation, the nonbinding peptides were removed by pouring out the solutions onto a clean paper towel, and the setup was washed three times by adding 200 μL of 1× PBS to each well and gently agitating the setup for 30 s before removing the washing solution. After washing was complete, fluorescence imaging was performed using an IVIS Spectrum fluorescent imaging system (PerkinElmer), with an automatically calculated exposure time (usually ∼1 s), a 20 cm × 20 cm field of view, and an excitation/emission of 640/680 nm, respectively. The imaging results were analyzed using Living Image software to calculate the total fluorescence intensity for each well, and the results for each hit or control were averaged across different wells. The negative control used was unconjugated AF647, while the positive control was WGA-AF647, since WGA is a known lectin that binds glycoproteins.
(§3) To better account for tissue-to-tissue variability, the results for each trial were reported as scores rather than using the raw fluorescence intensity. […]

[4] = system: MUC5AC-containing stomach tissue; assay: Ex vivo fluorescent binding to stomach tissue; design: species or system porcine; conditions: MUC5AC-selective peptides to stomach
From the text: as §1
as §2, with “After the peptides were added, the plate setup was covered with aluminum foil and allowed to incubate for 1 h at room temperature with gentle agitation (50 rpm). After incubation, the nonbinding peptides were removed by pouring out the solutions onto a clean paper towel, and the setup was washed three times by adding 200 μL of 1× PBS to each well and gently agitating the setup for 30 s before removing the washing solution.” left out, “The negative control used was unconjugated AF647, while the positive control was WGA-AF647, since WGA is a known lectin that binds glycoproteins.” left out
as §3

[5] = scaled between free AF647 (0) and WGA-AF647 (1), mean across trials n = 3

Substance | phage ELISA binding vs negative controls (MUC5AC [1]) | % Prevalence (MUC5AC [2]) [%] | selectivity for the small intestine vs controls (small intestine) | Overall nanoparticle “score” [3, 5] | Selectivity ([3]; score for MUC2 tissue / sum of scores for all mucins, n = 3) | Overall nanoparticle “score” [4, 5] | Selectivity ([4]; score for MUC5AC tissue / sum of scores for all mucins, n = 3)
CSSASVEWC (disulfide 1-9 (inferred)) [Peptide M5.4, CX7C cyclic peptide hit for MUC5AC; AF647 conjugated at N-terminus in ex vivo tests] | significantly greater binding to MUC5AC than the random library and insertless phage | 6.25 | – | – | – | – | –
Alexa Fluor 647-conjugated wheat germ agglutinin [WGA] | – | – | did not demonstrate a significant improvement over the free dye | 1 | 0.333 | 1 | 0.333
